Assay: in vitro
Settings: human, hela cells, % viability

Point of comparison: `O=C(CN1CCN(S(=O)(=O)c2ccc(F)cc2)CC1)Nc1cccc(C(F)(F)F)c1` [CBK071925], viability at 28.5 h, 10 µM 92.7%. Against it:
- O=C(O)c1cc(Br)cc2c3c([nH]c12)CCCC3 [CBK100973] — higher, 99.7%
- CC(C)C(NC(=O)c1ccc(CS(C)(=O)=O)cc1)c1ccc(C(C)(C)C)cc1 (centres unmarked) [CBK296705] — higher, 102%
- O=S(=O)(Nc1ccc2[nH]ccc2c1)c1ccc(Br)cc1F [CBK153510] — lower, 88.9%
- CC(CN1CCOCC1)C(=O)N1CC(C(=O)N2CCN(c3ccccc3)CC2)C1 (centres unmarked) [CBK286047] — lower, 90.6%
- COc1ccc(-c2noc([C@@H]3C[C@H](NS(=O)(=O)Cc4ccccc4)CN3C)n2)cc1 [CBK288863] — higher, 93.2%
- COc1cccc2cc(C(=O)C3=C(O)C(=O)N(CCN4CCOCC4)C3c3cccc(Cl)c3)oc12 (centres unmarked) [CBK266599] — higher, 100%
- CNC(=O)C1(Cc2ccc(-c3cccc(C)c3)cc2)CCN(C(=O)C(C)(C)C)CC1 [CBK285755] — higher, 98.6%
- COCCCNC(=O)c1cnn2c(C)c(Cc3ccccc3Br)c(C)nc12 [CBK071628] — higher, 101%
- O=C(OCc1ccccc1)N1CCN(c2ccccc2)CC1 [CBK200241] — higher, 116%
- Cc1nc(NS(=O)(=O)c2ccc3ccccc3c2)sc1C(=O)O [CBK045548] — higher, 105%
- Cc1cc(NCn2nnc3ccccc32)ccc1Br [CBK057031] — lower, 88.2%
- NC(=O)C1(N2CCCCC2)CCN(Cc2nc(O)c3ccccc3n2)CC1 [CBK265896] — higher, 103%
- Cc1nnc2sc(-c3ccc(NC(=S)NC(=O)c4ccc(-c5ccccc5[N+](=O)[O-])o4)cc3)nn12 [CBK266803] — lower, 86.4%
- O=C(CCc1cccnc1)NC(Cc1ccsc1)c1nccs1 (centres unmarked) [CBK284665] — higher, 99.5%
- O=C(O)/C(=C\c1ccccc1)NC(=O)c1cccc([N+](=O)[O-])c1 [CBK263348] — higher, 96.3%
- Cc1[nH]c(=O)[nH]c(=O)c1S(=O)(=O)N1CCOCC1 [CBK261060] — higher, 96.1%
- CCOc1cc(C(c2c[nH]c3ccccc23)c2c[nH]c3ccccc23)ccc1OCC(=O)O [CBK264450] — higher, 97.1%
- CCOC(=O)c1c(NC(=O)c2ccccc2C(=O)O)sc2c1CCCC2 [CBK116364] — higher, 113%
- COc1ccc(Sc2nc3ccccc3nc2C(F)(F)F)cc1OC [CBK093779] — lower, 85%
- CC(=O)NC(c1ccccn1)C1CCCN(C(=O)C2CCCCC2)C1 (centres unmarked) [CBK285031] — higher, 109%
- COc1ccccc1-c1nccnc1OCCn1cccc1 [CBK106820] — lower, 91.3%
- Cc1nn(C)c(Oc2ccc3c(c2)CCCC3)c1[N+](=O)[O-] [CBK000273] — lower, 91.2%
- COc1ccc(C(=O)O)cc1NC(=S)NC(=O)c1ccc(-c2ccccc2)cc1 [CBK265064] — higher, 99.5%
- CCc1cc(C(=O)NC(CCn2ccnc2)c2ccccc2)cc(=O)[nH]1 (centres unmarked) [CBK306679] — higher, 114%
- Nc1cc2c(cc1Cl)C(=O)NC2=O [CBK028783] — higher, 101%
- CCn1c(CNC(=O)c2cn3cc(C)ccc3n2)nc2ccccc21 [CBK281395] — lower, 89.4%
- CCCC1NCCn2cccc21 (centres unmarked) [CBK007074F] — lower, 85.6%
- CC(NC(=O)N(Cc1c[nH]c(-c2ccccc2)n1)CC(C)(C)CN)c1cccc2ccccc12 (centres unmarked) [CBK026801C] — higher, 96.3%
- CCOCC(=O)N(C)C(CO)c1cc(OC)ccc1Br (centres unmarked) [CBK304722] — lower, 90%
- CN1N=C(c2ccc(N3CCOCC3)c(F)c2)CC1c1cnn(C)c1 (centres unmarked) [CBK305726] — lower, 87.6%
- CC(CCN(C)CCN(C)C)c1ccccc1 (centres unmarked) [CBK261871] — lower, 87.6%
- Cc1ccccc1OCCCn1cncc1-c1cn(C)nc1C [CBK281813] — lower, 85.1%
- CS(=O)(=O)Nc1cc(-c2noc([C@@H]3CCCN3Cc3ccncc3)n2)ccn1 [CBK288886] — lower, 83.5%
- Cc1c(Cl)c(C(=O)N[C@@H]2CCN(Cc3ccccn3)C[C@H]2O)nn1C [CBK306676] — higher, 96%
- CCn1c(C2CC(=O)N(c3ccc(C)cc3C)C2)nc2ccccc21 (centres unmarked) [CBK287505] — lower, 83.1%
- Cc1nn(C)cc1-c1cncn1CCN(C)C1CCCC1 [CBK281780] — higher, 95.8%
- O=C1CCCN1CCOc1nccnc1-c1cc2ccccc2s1 [CBK106780] — lower, 91%
- CCOc1ccc(Cl)cc1CN(C)C(=O)NC(C)CN1CCOCC1 (centres unmarked) [CBK307170] — lower, 92.4%
- Cc1ccc(C(=O)N2C[C@H]3NC(=O)c4ccccc4C(=O)[C@@]3(C)C2)cc1 [CBK285315] — lower, 87.6%
- Cc1ccc(C(=O)NCC(O)c2ccc(F)cc2F)cn1 (centres unmarked) [CBK297751] — lower, 89.8%
- O=C(O)c1cccc(-n2c(S)nnc2-c2ccncc2)c1 [CBK269260] — higher, 105%
- COc1cccc2cc(C3CN(C(=O)C(C)(C)NC(=O)OC(C)(C)C)CC3C(=O)O)oc12 (centres unmarked) [CBK001348] — higher, 102%
- COc1ccc(NC(=O)CC2NC3CCCCC3NC2=O)cc1 (centres unmarked) [CBK266488] — lower, 89.7%
- OCCC1CCCCN1c1nccnc1-c1ccsc1 (centres unmarked) [CBK037358] — higher, 105%
- COc1ccc(CSc2nc3sc4c(c3c(=O)n2Cc2ccccc2)CCN(Cc2ccccc2)C4)cc1 [CBK263714] — lower, 85.1%
- CN(CCN1CCCCC1)C(=O)Cn1cnc2ccccc21 [CBK281515] — lower, 90.6%
- CC(=O)N1CC[C@H]2NC(=O)CNC(=O)C3(CCCC[C@H]2C1)CCN(Cc1ccc(Cl)cc1)CC3 [CBK292119] — lower, 90.5%
- CCn1c(CN2CCOCC2)nnc1SCC(=O)Nc1cc(Cl)ccc1C [CBK270183] — higher, 93.8%
- Cc1cc(N2CCCC(C(=O)N3CCOCC3)C2)nc(N)n1 (centres unmarked) [CBK305985] — lower, 76.4%
- CCCCc1cc(=O)oc2cc(OC(C)C(=O)O)c(Cl)cc12 (centres unmarked) [CBK265166] — higher, 95.7%
- CCCC(=O)c1ccc(S(=O)(=O)N2CCCN(Cc3cccnc3N3CCOCC3)CC2)cc1 [CBK062900] — higher, 93.9%
- CC(C)(C)c1ccc(OCCCC(=O)Nc2ccc(N3CCOCC3)cc2)cc1 [CBK264783] — lower, 88.8%
- O=C(CN1C2CCC1CC(O)(c1ccco1)C2)NCc1ccccc1 (centres unmarked) [CBK284105] — higher, 94.5%
- COc1cc(CNC(C)(C)CO)ccc1OCc1ccc(Cl)cc1 [CBK266433C] — lower, 92%
- COc1cc(Cn2c(-c3ccc(O)c(OC)c3)nc3ccccc32)ccc1O [CBK291138] — higher, 100%
- O=S(=O)(Nc1ccc2c(ccn2Cc2ccccc2)c1)c1ccc(S(=O)(=O)c2ccccc2)s1 [CBK159533] — higher, 114%
- C=CCOc1ccc(C(=O)C2=C(O)C(=O)N(Cc3cccnc3)C2c2ccc(Cl)cc2)c(C)c1 (centres unmarked) [CBK264716] — higher, 99.6%
- CC(C)[C@H](CO)Nc1nc(-c2ccc(F)c(Cl)c2)cnc1N [CBK063949] — higher, 109%
- O=C(CSc1nc2sc3c(c2c(=O)[nH]1)CCCC3)NCCN1CCOCC1 [CBK264064] — higher, 111%
- NC(=O)C1(Cc2ccc(-c3ccccc3)cc2)CCN(C(=O)COc2ccccc2)CC1 [CBK285773] — higher, 95.9%
- CN1CCN(c2ccc(S(=O)(=O)Nc3cc(C(=O)O)cc(C(=O)O)c3)cc2[N+](=O)[O-])CC1 [CBK263862] — higher, 96.8%
- COc1ccc([C@@]2(O)CC[C@@H]3CN(C(=O)C4CCCC4)C[C@@H]32)cc1 [CBK285260] — lower, 85%
- CN(C)c1ccc(CCNS(=O)(=O)c2ccc3[nH]c(=O)[nH]c(=O)c3c2)cc1 [CBK285938] — lower, 84.8%
- CSCc1nc2ccccc2n1CC(=O)N(CCC#N)Cc1ccco1 [CBK305440] — higher, 97.7%
- CCc1nn(Cc2ccncc2)c(=O)c2cc3sc(C)cc3n12 [CBK284140] — lower, 85.7%
- O=C(CSc1nc2ccccc2s1)c1cccc([N+](=O)[O-])c1 [CBK262130] — lower, 88.2%
- COc1ccc(-n2c(SCC(=O)Nc3cccc(C(C)=O)c3)nc3sc(C)c(C)c3c2=O)cc1 [CBK091806] — higher, 97.6%
- COc1cc(C(CC(C)NC(C)(C)C)c2ccccc2)ccc1OCc1ccccc1 (centres unmarked) [CBK017901] — lower, 79.8%
- C1=C(CNC(Cc2cccs2)c2nccs2)COCC1 (centres unmarked) [CBK284682] — higher, 103%
- CCOC(=O)C1CCN(S(=O)(=O)c2ccc(NC(=O)N3CCCC3)cc2)CC1 [CBK269823] — higher, 100%
- O=C(O)C1C2C=CC(O2)C1C(=O)Nc1ccc(S(=O)(=O)N2CCc3ccccc32)cc1 (centres unmarked) [CBK268176] — lower, 91.1%
- CCOC(=O)c1cnc(Nc2nc3ccccc3o2)nc1CN1CCN(c2ccccc2)CC1 [CBK266927] — higher, 93.1%
- Cc1cccc(S(=O)(=O)N2CCN(C)CC2)c1 [CBK097893] — higher, 93.6%
- CC(NC(=O)C1CCN(Cc2ccc(Oc3ccccc3)cc2)CC1)c1ccccc1 (centres unmarked) [CBK148618] — higher, 107%
- O=C(CCS(=O)(=O)c1ccccc1)NCc1ccccc1OC1CCNC1 (centres unmarked) [CBK028296T] — higher, 95.9%
- Cc1ccc(C(Cc2ccsc2)NS(=O)(=O)c2ccc3[nH]c(=O)[nH]c(=O)c3c2)nc1 (centres unmarked) [CBK286354] — lower, 88.6%
- COc1cc(NC(=O)Nc2ccccc2OC)c(OC)cc1Cl [CBK270329] — higher, 95.7%
- OCCN(CCO)c1cncc(-c2cccc(C(F)(F)F)c2)n1 [CBK037917] — higher, 109%
- CC1CCc2nn(CCNC(=O)c3ccco3)c(=O)cc2C1 (centres unmarked) [CBK284481] — higher, 95.2%
- Cc1cc(C)n(CCC(=O)N2CCCCC2C(=O)O)n1 (centres unmarked) [CBK304678] — higher, 103%
- O=C(COc1ccc([N+](=O)[O-])cc1)Nc1ccc2oc(-c3ccc(Br)cc3)nc2c1 [CBK263444] — higher, 106%
- Cc1cc(S(=O)(=O)Nc2cccc(C(=O)O)c2)c(C)c(S(=O)(=O)c2ccccc2)c1 [CBK263227] — lower, 88.3%
- COc1ccccc1CC(=O)N1CCCC(c2cc3ncccc3[nH]2)C1 (centres unmarked) [CBK283417] — higher, 95.4%
- COc1ccc(OC)c(C(=O)N2CCNC(=O)C2Cc2ccc(-c3cccs3)cc2)c1 (centres unmarked) [CBK285803] — higher, 111%

Same assay, conditions: human, hela cells, % viability, bulk resorufin, single well

Compound `Cc1ccc(Cn2nc(C(=O)Nc3ccc4c(c3)OCO4)c3ccccc32)cc1` [CBK047847] has a viability at 28.5 h, 10 µM of 87%.
